Experiments:
[1] = tested on: hippocampal CA3 pyramidal neurons; assay: Response of hippocampal CA3 pyramidal neurons to WAY 100635 after 3-day treatments (5-HT1A tonus); assay type: in vivo, rat; conditions: for 5-HT1A-mediated inhibitory tonus in the hippocampus: Example 7, 3 days, prucalopride 2.5, citalopram 10, RS 67333 1.5 mg/kg/day
Protocol: FIGS. 8A to 8C. […] Single-cell extracellular recordings were performed in the CA3 region of chloral-hydrate anaesthetized rats by using multiple-barrel glass microelectrodes, combined with microiontophoretic pumps (with the central barrel used for recordings). Pyramidal neurons were identified according to the classical criteria (see Example 5, the experimental procedures). The 5-HT4 agonists were administered through the use of osmotic minipumps, inserted subcutaneously in the region of the back. Recordings were performed with the minipumps still in place. *p<0.05, **p<0.01, ***p<0.001 vs control, Dunnett's test. […] FIG. 8C is a typical example showing the response of a single pyramidal neuron to cumulative doses of WAY 100635, in a rat co-administered with RS 67333 (same treatment as above for FIG. 8A) and the 5-HT depleter para-chlorophenylalanine (pCPA; 150 mg/kg, i.p. once daily 72, 48 and 24 h before the recordings).
Drugs and Chemicals. The following compounds were used: GR 125487 sulphamate, prucalopride monohydrochloride, citalopram hydrobromide (gifts from Glaxo, Janssen and Lundbeck laboratories, respectively), RS 67333 hydrochloride (Tocris Cookson Inc., Ellisville, Mo., USA), WAY 100635 hydrochloride (Research Biochemicals, Natick, Mass., USA), pCPA methyl ester hydrochloride, BrdU (Sigma-Aldrich Canada, Oakville, Ontario, Canada). All compounds were diluted in distilled water. All drug dosages refer to the free base. For chronic treatments, prucalopride (2.5 mg/kg/day), RS 67333 (1.5 mg/kg/day) or the vehicle were delivered through osmotic minipumps (Alza, Palo Alto, Calif., USA), inserted subcutaneously in the region of the back under short-duration (≦5 min) halothane anesthesia. The 5-HT depleter PCPA was administered once daily at the dose of 150 mg/kg, i.p., 72, 48 and 24 h before the recordings. BrdU treatments consisted of two administrations per day (50 mg/kg, i.p. each, 8 h interval), starting from the day of minipump insertion until day 2 post-surgery.
Microiontophoresis and extracellular recordings from hippocampal CA3 pyramidal neurons. Recording and microiontophoresis were performed with five-barreled glass micropipettes broken back to 8-12 μm under microscope control. The central barrel was filled with the same solution as in the DRN and was used for extracellular unitary recordings. Pyramidal neurons were identified by their large amplitude (0.5-1.2 mV) and long-duration (0.8-1.2 ms) simple spikes alternating with complex spike discharges (Kandel and Spencer, 1961). The side barrels contained the following solutions: quisqualate (1.5 mM in 200 mM NaCl, pH 8), WAY 100635 (15 mM in 200 mM NaCl, pH 4), and 2 M NaCl used for automatic current balancing. Rats were mounted in the stereotaxic apparatus and the micropipettes were lowered at 4.2 mm lateral and 4.2 anterior to lambda into the CA3 sub-region of the dorsal hippocampus.
The firing activity of dorsal hippocampus pyramidal neurons was then recorded in the CA3 subfield, before and after systemic administration of the selective 5-HTLA antagonist WAY 100635.

[2] = tested on: DRN 5-HT neurons; conditions: cited from earlier work; for enhancement of DRN 5-HT neuron mean firing rate: Lucas et al., 2005
[3] = tested on: DRN 5-HT neurons; assay: Reversal by acute prucalopride of the inhibition of DRN 5-HT neuron firing rate induced by i.v. SSRIs; assay type: in vivo, rat
Excerpt: FIGS. 6A and 6B illustrate the effect of prucalopride on the inhibition of 5-HT neuronal firing rate induced by SSRIs fluxoamine and citalopram.
In FIGS. 6A and 6B, the firing activity of the 5-HT neuron is suppressed following the acute intravenous administration of the antidepressant SSRIs fluvoxamine and citalopram. This suppression of the firing activity is due to the activation of the 5-HT1A autoreceptors, subsequent to the increase of the concentration of endogenous 5-HT, following the blockade of the 5-HT reuptake sites.

[4] = Horizontal locomotion in activity chambers; conditions: i.p. 30 min before testing; prucalopride 2.5 mg/kg, RS 67333 1.5 mg/kg
Protocol: All data are expressed as mean±S.E.M. of eight animals per group, and are from an observation of 4 min duration. Rats experienced a pre-test session (15 min) 24 h before the test session. The 5-HT4 agonists were administered 30 min before the test session. […] Data are expressed as mean±S.E.M. of eight animals per group, and are from an observation of 10 min duration. The 5-HT4 agonists were administered 30 min before testing. *p<0.05, **p<0.01 vs the vehicle, Dunnett's test;
Thirty min after drug administration, rats were placed in activity cages in whom photoelectric cells were inserted allowing recordings of locomotor activity, i.e. quantification of the total number of activity counts (photocell beam breaks) during 10 min. session.

[5] = cumulative i.v. WAY 100635 500 μg/kg, 3-day prucalopride 2.5 mg/kg/day or RS 67333 1.5 mg/kg/day
[6] = acute prucalopride 1000 μg/kg i.v., Lucas and Debonnel, 2002

Question: What does the source list for `CCCCN1CCC(CCC(=O)c2cc(Cl)c(N)cc2OC)CC1` [RS 67333, 1-(4-amino-5-chloro-2-methoxyphenyl)-3-(1-n-burtl-4-piperidinyl)-1-propanone]?
Answer: CA3 pyramidal neuron activity after WAY 100635 ([1]; 3-day RS 67333, as restated in the Discussion): up to 440 % of pre-drug values; quisqualate ejection currents required to obtain basal firing ([1]; 3-day treated groups, controls 0 to −2 nA): −4 to −6 nA; 5-HT1A-mediated inhibitory tonus in the hippocampus [1]: strong tonic inhibition; firing activity of CA3 pyramidal neurons after WAY 100635 ([1]; cumulative i.v. WAY 100635 200 μg/kg, 3-day RS 67333 1.5 mg/kg/day): 276 (±52) % of basal values; firing activity of CA3 pyramidal neurons after WAY 100635 ([1]; cumulative i.v. WAY 100635 300 μg/kg, 3-day RS 67333 1.5 mg/kg/day): 378 (±43) % of basal values; firing activity of CA3 pyramidal neurons after WAY 100635 [1, 5]: 445 (±60) % of baseline; enhancement of DRN 5-HT neuron mean firing rate [2]: 70%

Question: Which results are given for `COCCCN1CCC(NC(=O)c2cc(Cl)c(N)c3c2OCC3)CC1` [prucalopride]?
Answer: share of 5-HT neurons in which the suppression is reversed ([3]; acute prucalopride): about one-half; effect of prucalopride on SSRI-induced suppression of 5-HT neuron firing ([3]; acute prucalopride after fluvoxamine or citalopram i.v.): partially reverse; 5-HT1A-mediated inhibitory tonus in the hippocampus [1]: modest inhibitory tonus; firing activity of CA3 pyramidal neurons after WAY 100635 [1, 5]: 191 (±31) % of baseline; enhancement of DRN 5-HT neuron mean firing rate [2]: 40-45%; increase of DRN 5-HT activity in responder neurons [2, 6]: around 100%; share of 5-HT neurons responding ("responders") [2, 6]: 47%; effect on rat locomotion (activity counts, 10 min) [4]: 78%

From patent US20090170899A1, “Stimulators of 5-HT4 receptors and uses thereof” (priority 2004, published 2009)
